# Where “and” joins values, the source holds several entries; their conditions need not be identical. Equal values may be shown once. Ends that are not written are not given here.
# Legend:
# [1] = Electronic tongue analysis (Taste-Sensing System SA 402B); parameters: unit not given here; conditions: reference solution 30 mM KCl + 0.3 mM tartaric acid as baseline, first measurement excluded; for Umami: sensor AAE; for Umami / Bitter / Sweet: detection threshold 0, room temperature; for Umami / Bitter / Sour / Salty: four replicates; for Sour: detection threshold -13, room temperature; for Salty: detection threshold -6, room temperature; for Sweet: measured five times
# In short: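 Samples were tested at 0.1 and 1.0 mg/mL on an SA 402B e-tongue fitted with sourness, saltiness, bitterness, sweetness and umami sensors, with 30 mM KCl/0.3 mM tartaric acid as reference and baseline. Thresholds were −13 for sour, −6 for salty and 0 for the rest. Runs at room temperature: four replicates, five for sweetness, first reading discarded.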
# [2] = system: human bronchial epithelial cells (BEAS-2B)
# [3] = system: human umbilical vein endothelial cells (HUVEC)
# [4] = system: human embryonic kidney cells (HEK293T)
# [5] = system: human pancreatic ductal epithelial cells (HPNE)
Substance,Umami ([1]; peptide 0.1 mg/mL),Umami ([1]; peptide 1 mg/mL),"Bitter ([1]; sensor C00, peptide 0.1 mg/mL)","Bitter ([1]; sensor C00, peptide 1 mg/mL)","Sour ([1]; sensor CA0, peptide 0.1 mg/mL)","Sour ([1]; sensor CA0, peptide 1 mg/mL)","Salty ([1]; sensor CT0, peptide 0.1 mg/mL)","Salty ([1]; sensor CT0, peptide 1 mg/mL)","Sweet ([1]; sensor GL1, peptide 0.1 mg/mL)","Sweet ([1]; sensor GL1, peptide 1 mg/mL)","Average cell viability, BEAS-2B [2]","Cell viability, BEAS-2B, Data1 [2]","Cell viability, BEAS-2B, Data2 [2]","Cell viability, BEAS-2B, Data3 [2]","Average cell viability, HUVEC [3]","Cell viability, HUVEC, Data1 [3]","Cell viability, HUVEC, Data2 [3]","Cell viability, HUVEC, Data3 [3]","Average cell viability, HEK293T [4]","Cell viability, HEK293T, Data1 [4]",further results
TPRKQ [TaPep37],1.93,-5.88,7.34,3.28,-4.03,12.49,-13.82,15.18,4.01,-5.26,100.23,95.41,110.47,94.82,107.80,111.04,111.52,100.82,100.47,100.50,"Cell viability, HEK293T, Data2 [4]: 96.44; Cell viability, HEK293T, Data3 [4]: 104.48; Average cell viability, HPNE [5]: 94.98; Cell viability, HPNE, Data1 [5]: 108.02; Cell viability, HPNE, Data2 [5]: 84.26; Cell viability, HPNE, Data3 [5]: 92.65"
TQEVVN [TaPep25],1.53,-3.13,7.01,3.50,-6.12,7.84,-23.02,5.51,8.12,-3.53,110.07,118.34,103.39,108.47,92.52,90.21,89.33,98.03,100.16,103.15,"Cell viability, HEK293T, Data2 [4]: 98.42; Cell viability, HEK293T, Data3 [4]: 98.90; Average cell viability, HPNE [5]: 92.98; Cell viability, HPNE, Data1 [5]: 92.95; Cell viability, HPNE, Data2 [5]: 81.96; Cell viability, HPNE, Data3 [5]: 104.03"
VAEDLL [TaPep8],2.66,-4.08,7.50,1.63,-5.63,8.25,-22.00,7.96,9.31,-4.65,103.39,114.76,90.53,104.89,103.81,109.13,93.96,108.33,101.07,102.68,"Cell viability, HEK293T, Data2 [4]: 95.30; Cell viability, HEK293T, Data3 [4]: 105.24; Average cell viability, HPNE [5]: 106.12; Cell viability, HPNE, Data1 [5]: 109.62; Cell viability, HPNE, Data2 [5]: 99.23; Cell viability, HPNE, Data3 [5]: 109.52"
VARLEA [TaPep9],2.67,-2.73,7.95,2.75,-6.31,8.17,-18.92,12.49,8.92,-4.48,112.30,110.77,115.45,110.67,96.43,97.15,102.50,89.65,105.62,103.06,"Cell viability, HEK293T, Data2 [4]: 112.15; Cell viability, HEK293T, Data3 [4]: 101.64; Average cell viability, HPNE [5]: 104.39; Cell viability, HPNE, Data1 [5]: 117.30; Cell viability, HPNE, Data2 [5]: 93.74; Cell viability, HPNE, Data3 [5]: 102.13"
VEKVE [TaPep67],1.99,-4.10,7.39,4.01,-4.19,10.40,-19.59,9.82,6.41,-3.54,110.54,94.32,118.94,118.34,100.75,112.48,97.95,91.80,100.22,99.37,"Cell viability, HEK293T, Data2 [4]: 105.99; Cell viability, HEK293T, Data3 [4]: 95.30; Average cell viability, HPNE [5]: 96.14; Cell viability, HPNE, Data1 [5]: 105.92; Cell viability, HPNE, Data2 [5]: 99.23; Cell viability, HPNE, Data3 [5]: 83.26"
VPDELN [TaPep23],1.53,-4.39,7.18,3.47,-3.15,11.00,-22.67,6.69,5.26,-4.58,102.53,109.87,92.32,105.38,97.76,98.19,95.72,99.39,90.54,91.61,"Cell viability, HEK293T, Data2 [4]: 84.89; Cell viability, HEK293T, Data3 [4]: 95.11; Average cell viability, HPNE [5]: 99.63; Cell viability, HPNE, Data1 [5]: 105.82; Cell viability, HPNE, Data2 [5]: 109.52; Cell viability, HPNE, Data3 [5]: 83.56"
YAGNAP [TaPep10],3.61,-3.37,6.97,bitterness suppression and -0.80,-8.60,8.97,-20.44,14.02,11.07,-4.53,98.84,101.69,95.01,99.80,102.47,99.31,104.50,103.62,99.40,94.83,"Cell viability, HEK293T, Data2 [4]: 102.87; Cell viability, HEK293T, Data3 [4]: 100.50; Average cell viability, HPNE [5]: 95.54; Cell viability, HPNE, Data1 [5]: 97.18; Cell viability, HPNE, Data2 [5]: 94.47; Cell viability, HPNE, Data3 [5]: 94.97"
YDGTPLN [TaPep11],2.75,-2.91,7.10,3.24,-5.95,9.08,-21.79,6.18,9.69,-5.23,102.96,102.59,99.80,106.48,112.96,111.12,113.36,114.40,102.37,107.03,"Cell viability, HEK293T, Data2 [4]: 95.68; Cell viability, HEK293T, Data3 [4]: 104.38; Average cell viability, HPNE [5]: 100.63; Cell viability, HPNE, Data1 [5]: 98.34; Cell viability, HPNE, Data2 [5]: 113.51; Cell viability, HPNE, Data3 [5]: 90.05"
YQAENKH [TaPep14],3.07,-3.87,7.83,0.38,-6.58,9.86,-18.09,13.64,7.88,-4.10,116.78,112.46,118.94,118.94,95.42,102.42,90.29,93.56,98.23,95.02,"Cell viability, HEK293T, Data2 [4]: 96.25; Cell viability, HEK293T, Data3 [4]: 103.44; Average cell viability, HPNE [5]: 98.70; Cell viability, HPNE, Data1 [5]: 93.34; Cell viability, HPNE, Data2 [5]: 103.13; Cell viability, HPNE, Data3 [5]: 99.63"
